Test results published in patent publication US4442044A, “Process for preparing monoesters and diesters of N-alkyl substituted amino methyl phosphonic acid” (priority 1983, dated 1984).

Tests used:
Experiment in all cases: post-emergent herbicidal activity, greenhouse
Assay type in all cases: in vivo
[1] = system: Smartweed
Procedure, shortened: (§1)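 Seeds or propagules sown in compacted top soil, grown 2–3 weeks in greenhouse, then sprayed with compound solution/suspension containing ~0.4% emulsifier at tabulated rates. Injury scored visually versus untreated controls at ~2 and 4 weeks after treatment, expressed as a herbicidal activity index.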

[2] = system: Morningglory
Procedure, shortened: as §1

[3] = system: Johnsongrass; conditions: Table I, 4 WAT
Procedure, shortened: as §1

[4] = system: Velvetleaf
Procedure, shortened: as §1

[5] = system: Yellow Nutsedge; conditions: Table I, 4 WAT
Procedure, shortened: as §1

[6] = system: Crabgrass; conditions: Table II
Procedure, shortened: as §1

[7] = system: Panicum Spp; conditions: Table II
Procedure, shortened: as §1

[8] = system: Hemp Sesbania; conditions: Table II
Procedure, shortened: as §1

[9] = system: Wheat; conditions: Table II
Procedure, shortened: as §1

[10] = system: Rice; conditions: Table II
Procedure, shortened: as §1

[11] = system: Barnyardgrass
Procedure, shortened: as §1

[12] = system: Canada Thistle; conditions: Table I, 4 WAT
Procedure, shortened: as §1

[13] = system: Lambsquarters
Procedure, shortened: as §1

[14] = system: Downy Brome
Procedure, shortened: as §1

[15] = system: Sorghum; conditions: Table II
Procedure, shortened: as §1

[16] = system: Wild Buckwheat; conditions: Table II
Procedure, shortened: as §1

[17] = system: Sugar Beet; conditions: Table II
Procedure, shortened: as §1

[18] = system: Quackgrass; conditions: Table I, 4 WAT
Procedure, shortened: as §1

[19] = system: Cocklebur
Procedure, shortened: as §1

[20] = system: Soybean; conditions: Table II
Procedure, shortened: as §1

For `CC(C#N)OP(=O)(CNCC#N)OC(C)C#N` (stereo not drawn) [Example 12, phosphonic acid, [[(cyanomethyl)amino]-methyl],bis 1-cyanoethyl ester], the “post-emergent herbicidal activity index” value ([1]; Table I, 4 WAT, 5.6 kg/h) was 4 (100% control), the “post-emergent herbicidal activity index” value ([1]; Table I, 4 WAT, 11.2 kg/h) was 4 (100% control) and the “post-emergent herbicidal activity index” value ([1]; Table II, 2 WAT, 0.28 kg/h) was 0 (0-24% control). The “post-emergent herbicidal activity index” value ([1]; Table II, 4 WAT, 1.12 kg/h) was 0 (0-24% control), the “post-emergent herbicidal activity index” value ([1]; Table II, 4 WAT, 5.6 kg/h) was 2 (50-74% control) and the “post-emergent herbicidal activity index” value ([2]; Table I, 4 WAT, 5.6 kg/h) was 2 (50-74% control). For the same molecule, the “post-emergent herbicidal activity index” value ([2]; Table I, 4 WAT, 11.2 kg/h) was 2 (50-74% control), the “post-emergent herbicidal activity index” value ([2]; Table II, 2 WAT, 0.28 kg/h) was 0 (0-24% control) and the “post-emergent herbicidal activity index” value ([2]; Table II, 4 WAT, 1.12 kg/h) was 1 (25-49% control). The “post-emergent herbicidal activity index” value ([3]; 5.6 kg/h) was 4 (100% control), the “post-emergent herbicidal activity index” value ([3]; 11.2 kg/h) was 3 (75-99% control) and the “post-emergent herbicidal activity index” value ([4]; Table I, 4 WAT, 5.6 kg/h) was 2 (50-74% control). The “post-emergent herbicidal activity index” value ([4]; Table I, 4 WAT, 11.2 kg/h) was 2 (50-74% control), the “post-emergent herbicidal activity index” value ([4]; Table II, 2 WAT, 0.28 kg/h) was 0 (0-24% control) and the “post-emergent herbicidal activity index” value ([4]; Table II, 4 WAT, 1.12 kg/h) was 1 (25-49% control). The “post-emergent herbicidal activity index” value ([4]; Table II, 4 WAT, 5.6 kg/h) was 2 (50-74% control), the “post-emergent herbicidal activity index” value ([5]; 5.6 kg/h) was 3 (75-99% control) and the “post-emergent herbicidal activity index” value ([5]; 11.2 kg/h) was 3 (75-99% control). For the same molecule, the “post-emergent herbicidal activity index” value ([6]; 2 WAT, 0.28 kg/h) was 0 (0-24% control), the “post-emergent herbicidal activity index” value ([6]; 4 WAT, 1.12 kg/h) was 2 (50-74% control) and the “post-emergent herbicidal activity index” value ([6]; 4 WAT, 5.6 kg/h) was 2 (50-74% control). For the same molecule, the “post-emergent herbicidal activity index” value ([7]; 2 WAT, 0.28 kg/h) was 0 (0-24% control), the “post-emergent herbicidal activity index” value ([7]; 4 WAT, 1.12 kg/h) was 0 (0-24% control) and the “post-emergent herbicidal activity index” value ([7]; 4 WAT, 5.6 kg/h) was 1 (25-49% control). The “post-emergent herbicidal activity index” value ([8]; 2 WAT, 0.28 kg/h) was 0 (0-24% control), the “post-emergent herbicidal activity index” value ([8]; 4 WAT, 1.12 kg/h) was 0 (0-24% control) and the “post-emergent herbicidal activity index” value ([8]; 4 WAT, 5.6 kg/h) was 0 (0-24% control). For the same molecule, the “post-emergent herbicidal activity index” value ([9]; 2 WAT, 0.28 kg/h) was 0 (0-24% control), the “post-emergent herbicidal activity index” value ([9]; 4 WAT, 1.12 kg/h) was 0 (0-24% control) and the “post-emergent herbicidal activity index” value ([9]; 4 WAT, 5.6 kg/h) was 2 (50-74% control). For the same molecule, the “post-emergent herbicidal activity index” value ([10]; 2 WAT, 0.28 kg/h) was 0 (0-24% control), the “post-emergent herbicidal activity index” value ([10]; 4 WAT, 1.12 kg/h) was 0 (0-24% control) and the “post-emergent herbicidal activity index” value ([10]; 4 WAT, 5.6 kg/h) was 2 (50-74% control). For the same molecule, the “post-emergent herbicidal activity index” value ([11]; Table I, 4 WAT, 5.6 kg/h) was 2 (50-74% control), the “post-emergent herbicidal activity index” value ([11]; Table I, 4 WAT, 11.2 kg/h) was 3 (75-99% control) and the “post-emergent herbicidal activity index” value ([11]; Table II, 2 WAT, 0.28 kg/h) was 0 (0-24% control). The “post-emergent herbicidal activity index” value ([11]; Table II, 4 WAT, 1.12 kg/h) was 1 (25-49% control), the “post-emergent herbicidal activity index” value ([11]; Table II, 4 WAT, 5.6 kg/h) was 3 (75-99% control) and the “post-emergent herbicidal activity index” value ([12]; 5.6 kg/h) was 2 (50-74% control). For the same molecule, the “post-emergent herbicidal activity index” value ([12]; 11.2 kg/h) was 2 (50-74% control), the “post-emergent herbicidal activity index” value ([13]; Table I, 4 WAT, 5.6 kg/h) was 3 (75-99% control) and the “post-emergent herbicidal activity index” value ([13]; Table I, 4 WAT, 11.2 kg/h) was 2 (50-74% control). The “post-emergent herbicidal activity index” value ([13]; Table II, 2 WAT, 0.28 kg/h) was 1 (25-49% control), the “post-emergent herbicidal activity index” value ([13]; Table II, 4 WAT, 1.12 kg/h) was 2 (50-74% control) and the “post-emergent herbicidal activity index” value ([13]; Table II, 4 WAT, 5.6 kg/h) was 4 (100% control). For the same molecule, the “post-emergent herbicidal activity index” value ([14]; Table I, 4 WAT, 5.6 kg/h) was 2 (50-74% control), the “post-emergent herbicidal activity index” value ([14]; Table I, 4 WAT, 11.2 kg/h) was 1 (25-49% control) and the “post-emergent herbicidal activity index” value ([14]; Table II, 2 WAT, 0.28 kg/h) was 0 (0-24% control). The “post-emergent herbicidal activity index” value ([14]; Table II, 4 WAT, 1.12 kg/h) was 0 (0-24% control), the “post-emergent herbicidal activity index” value ([14]; Table II, 4 WAT, 5.6 kg/h) was 3 (75-99% control) and the “post-emergent herbicidal activity index” value ([15]; 2 WAT, 0.28 kg/h) was 1 (25-49% control). For the same molecule, the “post-emergent herbicidal activity index” value ([15]; 4 WAT, 1.12 kg/h) was 3 (75-99% control), the “post-emergent herbicidal activity index” value ([15]; 4 WAT, 5.6 kg/h) was 4 (100% control) and the “post-emergent herbicidal activity index” value ([16]; 2 WAT, 0.28 kg/h) was 0 (0-24% control). The “post-emergent herbicidal activity index” value ([16]; 4 WAT, 1.12 kg/h) was 1 (25-49% control), the “post-emergent herbicidal activity index” value ([16]; 4 WAT, 5.6 kg/h) was 0 (0-24% control) and the “post-emergent herbicidal activity index” value ([17]; 2 WAT, 0.28 kg/h) was 0 (0-24% control). For the same molecule, the “post-emergent herbicidal activity index” value ([17]; 4 WAT, 1.12 kg/h) was 0 (0-24% control), the “post-emergent herbicidal activity index” value ([17]; 4 WAT, 5.6 kg/h) was 1 (25-49% control) and the “post-emergent herbicidal activity index” value ([18]; 5.6 kg/h) was 1 (25-49% control). The “post-emergent herbicidal activity index” value ([18]; 11.2 kg/h) was 2 (50-74% control), the “post-emergent herbicidal activity index” value ([19]; Table I, 4 WAT, 5.6 kg/h) was 2 (50-74% control) and the “post-emergent herbicidal activity index” value ([19]; Table I, 4 WAT, 11.2 kg/h) was 2 (50-74% control). For the same molecule, the “post-emergent herbicidal activity index” value ([19]; Table II, 2 WAT, 0.28 kg/h) was 0 (0-24% control), the “post-emergent herbicidal activity index” value ([19]; Table II, 4 WAT, 1.12 kg/h) was 1 (25-49% control) and the “post-emergent herbicidal activity index” value ([19]; Table II, 4 WAT, 5.6 kg/h) was 3 (75-99% control). For the same molecule, the “post-emergent herbicidal activity index” value ([20]; 2 WAT, 0.28 kg/h) was 0 (0-24% control), the “post-emergent herbicidal activity index” value ([20]; 4 WAT, 1.12 kg/h) was 1 (25-49% control) and the “post-emergent herbicidal activity index” value ([20]; 4 WAT, 5.6 kg/h) was 1 (25-49% control).
